Test system: T cell activation associated with MHC/antigen/TCR complexes
Assay: In vitro T cell activation assays
Type: cell-based

## O=C(CNC(=O)N1CCCC1)NNC(=O)Nc1ccc2ccccc2c1 [Formula IV]
  activity in in vitro T cell activation assays: showed activity
